This is an account of results in US20200079766A1, “MONOCYCLIC OGA INHIBITOR COMPOUNDS” (Janssen Pharmaceutica NV, priority 2016, published 2020).

Assay [1] deals with T1, recombinant human Meningioma Expressed Antigen 5 (MGEA5), also referred to as O-GlcNAcase (OGA) (Homo sapiens, UniProt O60502).
T1 construct: Full length OGA enzyme was purchased at OriGene (cat # TP322411); purchased OriGene TP322411
T1 sequence (O60502 1-916): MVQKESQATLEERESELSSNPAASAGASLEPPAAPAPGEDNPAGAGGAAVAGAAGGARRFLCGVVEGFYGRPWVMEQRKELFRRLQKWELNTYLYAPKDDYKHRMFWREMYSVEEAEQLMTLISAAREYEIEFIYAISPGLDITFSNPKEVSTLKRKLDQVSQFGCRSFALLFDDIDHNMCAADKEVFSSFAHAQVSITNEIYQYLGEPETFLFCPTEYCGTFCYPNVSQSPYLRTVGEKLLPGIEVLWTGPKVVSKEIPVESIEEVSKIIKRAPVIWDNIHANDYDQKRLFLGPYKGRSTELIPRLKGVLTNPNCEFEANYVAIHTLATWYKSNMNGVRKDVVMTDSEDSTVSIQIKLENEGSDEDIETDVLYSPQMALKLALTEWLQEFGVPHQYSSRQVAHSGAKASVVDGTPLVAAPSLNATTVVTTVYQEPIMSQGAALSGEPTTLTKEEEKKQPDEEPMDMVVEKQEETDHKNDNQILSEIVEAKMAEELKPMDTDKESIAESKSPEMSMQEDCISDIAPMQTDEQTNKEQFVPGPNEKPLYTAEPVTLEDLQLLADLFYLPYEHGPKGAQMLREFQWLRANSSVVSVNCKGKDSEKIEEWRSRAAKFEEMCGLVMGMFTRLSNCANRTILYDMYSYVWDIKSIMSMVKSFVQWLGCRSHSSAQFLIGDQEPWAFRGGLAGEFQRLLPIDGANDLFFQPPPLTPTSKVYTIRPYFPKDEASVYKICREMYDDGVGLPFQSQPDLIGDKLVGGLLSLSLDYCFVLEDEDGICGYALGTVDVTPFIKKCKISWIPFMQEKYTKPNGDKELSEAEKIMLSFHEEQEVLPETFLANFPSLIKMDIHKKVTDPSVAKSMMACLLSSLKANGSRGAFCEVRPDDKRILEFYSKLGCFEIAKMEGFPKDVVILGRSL
As to the kind of experiment: OGA biochemical assay: inhibition of FM-GlcNAc hydrolysis, fluorescence; protocol A (10 nM OGA, 1 h) or protocol B (2 nM OGA, 6 h). The following applies: Enzymatic protocol B (2 nM OGA, 6 h); for IC50: read-out: Enzymatic hOGA, pIC50 (converted). An excerpt: The assay is based on the inhibition of the hydrolysis of fluorescein mono-3-D-N-Acetyl-Glucosamine (FM-GlcNAc) (Mariappa et al. 2015, Biochem J 470:255) by the recombinant human Meningioma Expressed Antigen 5 (MGEA5), also referred to as O-GlcNAcase (OGA). The hydrolysis FM-GlcNAc (Marker Gene technologies, cat # M1485) results in the formation of ß-D-N-glucosamineacetate and fluorescein. The fluorescence of the latter can be measured at excitation wavelength 485 nm and emission wavelength 538 nm. An increase in enzyme activity results in an increase in fluorescence signal. Full length OGA enzyme was purchased at OriGene (cat # TP322411). The enzyme was stored in 25 mM Tris.HCl, pH 7.3, 100 mM glycine, 10% glycerol at −20° C. Thiamet G and GlcNAcStatin were tested as reference compounds (Yuzwa et al. 2008 Nature Chemical Biology 4:483; Yuzwa et al. 2012 Nature Chemical Biology 8:393). The assay was performed in 200 mM Citrate/phosphate buffer supplemented with 0.005% Tween-20. 35.6 g Na2HPO42H2O (Sigma, # C0759) were dissolved in 1 L water to obtain a 200 mM solution. 19.2 g citric acid (Merck, #1.06580) was dissolved in 1 L water to obtain a 100 mM solution. pH of the sodiumphosphate solution was adjusted with the citric acid solution to 7.2. The buffer to stop the reaction consists of a 500 mM Carbonate buffer, pH 11.0. 734 mg
FM-GlcNAc were dissolved in 5.48 mL DMSO to obtain a 250 mM solution and was stored at −20° C. OGA was used at a 10 nM (protocol A) or 2 nM (protocol B) concentration and FM-GlcNAc at a 100 uM final concentration. Dilutions were prepared in assay buffer.
50 nl of a compound dissolved in DMSO was dispensed on Black Proxiplate™ 384 Plus Assay plates (Perkin Elmer, #6008269) and 3 μl fl-OGA enzyme mix added subsequently. Plates were pre-incubated for 60 min at room temperature and then 2 μl FM-GlcNAc substrate mix added. […] Plates were briefly centrifuged for 1 min at 1000 rpm and incubate at room temperature for 1 h (10 nM OGA, protocol A) or 6 h (2 nM OGA, protocol B). To stop the reaction 5 μl STOP buffer were added and plates centrifuge again 1 min at 1000 rpm. Fluorescence was quantified in the Thermo Scientific Fluoroskan Ascent or the PerkinElmer EnVision with excitation wavelength 485 nm and emission wavelength 538 nm.
For analysis a best-fit curve is fitted by a minimum sum of squares method. From this an IC50 value and Hill coefficient was obtained. High control (no inhibitor) and low control (saturating concentrations of standard inhibitor) were used to define the minimum and maximum values.

Assay [2] has as its system OGA in HEK293 cells inducible for P301L mutant human Tau (isoform 2N4R). The experiment in a line: OGA cellular assay: immunocytochemical detection of O-GlcNAcylated proteins (CTD110.6 antibody) after 6 h incubation. The format is cell-based. The following applies: for Emax / EC50: Homo sapiens, HEK293, 6 h; for EC50: read-out: Cellular hOGA, pEC50 (converted). On the procedure:
HEK293 cells inducible for P301L mutant human Tau (isoform 2N4R) were established at Janssen. Thiamet-G was used for both plate validation (high control) and as reference compound (reference EC50 assay validation). OGA inhibition is evaluated through the immunocytochemical (ICC) detection of O-GlcNAcylated proteins by the use of a monoclonal antibody (CTD110.6; Cell Signaling, #9875) detecting O-GlcNAcylated residues as previoulsy described (Dorfmueller et al. 2010 Chemistry & biology, 17:1250). Inhibition of OGA will result in an increase of O-GlcNAcylated protein levels resulting in an increased signal in the experiment. Cell nuclei are stained with Hoechst to give a cell culture quality control and a rough estimate of immediate compounds toxicity, if any. ICC pictures are imaged with a Perkin Elmer Opera Phenix plate microscope and quantified with the provided software Perkin Elmer Harmony 4.1.
Cells were propagated in DMEM high Glucose (Sigma, # D5796) following standard procedures. 2 days before the cell assay cells are split, counted and seeded in Poly-D-Lysine (PDL) coated 96-wells (Greiner, #655946) plate at a cell density of 12,000 cells per cm^2 (4,000 cells per well) in 100 μl of Assay Medium (Low Glucose medium is used to reduce basal levels of GlcNAcylation) (Park et al. 2014 The Journal of biological chemistry 289:13519). At the day of compound test medium from assay plates was removed and replenished with 90 μl of fresh Assay Medium. 10 μl of compounds at a 10 fold final concentration were added to the wells. Plates were centrifuged shortly before incubation in the cell incubator for 6 hours. DMSO concentration was set to 0.2%. Medium is discarded by applying vacuum. For staining of cells medium was removed and cells washed once with 100 μl D-PBS (Sigma, # D8537). From next step onwards unless other stated assay volume was always 50 μl and incubation was performed without agitation and at room temperature. Cells were fixed in 50 μl of a 4% paraformaldehyde (PFA, Alpha aesar, #043368) PBS solution for 15 minutes at room temperature. […] Before analysis samples were washed 2 times manually for 5 minutes in ICC base buffer.
Imaging is performed using Perkin Elmer Phenix Opera using a water 20× objective and recording 9 fields per well. Intensity readout at 488 nm is used as a measure of O-GlcNAcylation level of total proteins in wells. To assess potential toxicity of compounds nuclei were counted using the Hoechst staining. IC50-values are calculated using parametric non-linear regression model fitting. As a maximum inhibition Thiamet G at a 200 uM concentration is present on each plate. In addition, a concentration response of Thiamet G is calculated on each plate.

What is called Emax is the size of the effect at its maximum, as opposed to the concentration needed.

The structures appear in SMILES notation.

With `Cc1cc(O[C@@H]2CCCN(C(C)c3ccc4nccnc4c3)C2)cc(C)n1` (mixture of isomers) [compound 19], in assay [1], the Emax came out at 100% and the IC50 is 6.92 nM. The molecule also came in with an Emax in assay [2] (maximum = Thiamet G 200 uM) of 73.3%. Further, in assay [2], the EC50 is 1380 nM.

Consider `Cc1cc(C[C@H]2CCN(C(C)c3ccc4sc(C)nc4c3)C2)cc(C)n1` (mixture of isomers) [compound 87], for which, in assay [1], the Emax was 101% and the IC50 is 58.9 nM. Besides, the Emax in assay [2] (maximum = Thiamet G 200 uM) came to 28.6%. For the same molecule, the EC50 in assay [2] was above 1000 nM.

In assay [2] (maximum = Thiamet G 200 uM), `Cc1cc(C[C@H]2CCN(C(C)c3ccc4scnc4c3)C2)cc(C)n1` (mixture of isomers) [compound 88] gave an Emax of 50.7%. In addition, the EC50 in assay [2] was 603 nM.

Turning to `Cc1cc(C[C@H]2CCN(C(C)c3ccc4c(c3)OCO4)C2)cc(C)n1` (mixture of isomers) [compound 93], in assay [1], the Emax was determined as 98.4% and the IC50 was 309 nM. For the same molecule, the Emax in assay [2] (maximum = Thiamet G 200 uM) worked out at 37.7%. Also, the EC50 in assay [2] was above 1000 nM.

Turning to `Cc1cc(CC2CCN(C(C)c3ccc4c(c3)OCCO4)C2)cc(C)n1.Cl.Cl` (mixture of isomers) [compound 95], in assay [1], the “Enzymatic Emax (%)” value is 101% and the “Enzymatic hOGA; pIC50” value was 6.81. For the same molecule, the “Cellular hOGA; pEC50” value in assay [2] is below 6. Further, the “Cellular Emax (%)” value in assay [2] (maximum = Thiamet G 200 uM) stood at 38.2%.

Turning to `Cc1cc(C[C@H]2CCN(C(C)c3ccc4nccnc4c3)C2)cc(C)n1` (mixture of isomers) [compound 100], in assay [1], the Emax amounted to 97% and the IC50 is 427 nM. This molecule also yielded a maximum response (Emax) in assay [2] (maximum = Thiamet G 200 uM) of 23.1%. The EC50 in assay [2] was above 1000 nM.

Regarding `CC(=O)Nc1ncc(CN2CCC[C@H](Oc3ccnc(C)c3)C2)s1` (racemic) [compound 17], in assay [1], the Emax was found to be 100% and the IC50 is 64.6 nM. This molecule also came in with an Emax in assay [2] (maximum = Thiamet G 200 uM) of 96.2%. In addition, the EC50 in assay [2] was 389 nM.

For `CC(=O)Nc1ncc(C(C)N2CCCC(COc3cc(C)nc(C)c3)C2)s1` (racemic) [compound 133], in assay [1], the Emax worked out at 101% and the IC50 is 3.89 nM. For the same molecule, in assay [2] (maximum = Thiamet G 200 uM), the Emax worked out at 98.9%. Besides, the EC50 in assay [2] is 11.2 nM.

With `Cc1cc(CC2CCCN(C(C)c3ccc4nccnc4c3)C2)cc(C)n1` (racemic) [compound 139], in assay [1], the Emax worked out at 101% and the IC50 was 10 nM. Moreover, the Emax in assay [2] (maximum = Thiamet G 200 uM) turned out to be 75%. Besides, the EC50 in assay [2] is 170 nM.

Take `Cc1cc(CC2CCCN(C(C)c3ccc4c(c3)OCO4)C2)cc(C)n1` (racemic) [compound 141]: the figures for the Emax in assay [1] and in assay [2] (maximum = Thiamet G 200 uM) were 102% and 83.5%, respectively. Besides, the IC50 in assay [1] was 11 nM. In addition, the EC50 in assay [2] was 87.1 nM.

Turning to `Cc1cc(CC2CCCN(C(C)c3ccc4c(c3)OCCO4)C2)cc(C)n1` (racemic) [compound 142], in assay [1], the Emax came to 102% and the IC50 is 4.9 nM. Also, the Emax in assay [2] (maximum = Thiamet G 200 uM) was 100%. Besides, the EC50 in assay [2] is 60.3 nM.

Take `CC(=O)Nc1ncc(CN2CCC[C@H](Cc3cnc(C)c(C)n3)C2)s1` [compound 124]: in assay [1], the Emax was determined as 100% and the IC50 is 1.74 nM.

For `CC(=O)Nc1ncc(CN2CCC[C@H](Cc3ccc(C)nc3C#N)C2)s1` [compound 125], in assay [1], the Emax was found to be 100% and the IC50 is 1.7 nM.

For the molecule `Cc1cc(C[C@H]2CCCN(Cc3ccc4c(c3)OCO4)C2)cc(C)n1` [compound 146], in assay [1], the Emax is 93.5% and the IC50 was 1000 nM.

For the molecule `Cc1cc(C[C@H]2CCCN(Cc3cc4ccccc4n3C)C2)cc(C)n1` [compound 150], in assay [1], the Emax amounted to 20.8% and the IC50 was above 10000 nM.

As for `Cc1cc(C[C@H]2CCCN(Cc3nc4ccccc4[nH]3)C2)cc(C)n1` [compound 151], in assay [1], the Emax was found to be 2.86% and the IC50 was above 10000 nM.

On to `Cc1cc(C[C@H]2CCCN(Cc3nc4ccccc4n3C)C2)cc(C)n1` [compound 153], for which, in assay [1], the Emax came to 23.9% and the IC50 was above 10000 nM.

For the molecule `CC(=O)Nc1ncc(CN2CC(COc3cc(C)nc(C)n3)CC(F)(F)C2)s1` (centres unmarked) [compound 161], in assay [1], the Emax amounted to 48% and the IC50 is above 10000 nM.

With `CC(=O)Nc1ncc(CN2CCC(F)(F)C(COc3cc(C)nc(C)n3)C2)s1` (centres unmarked) [compound 162], in assay [1], the Emax amounted to 91% and the IC50 was 1050 nM.

On to `CC(=O)Nc1ncc(CN2CCC(F)C(COc3cc(C)nc(C)n3)C2)s1` (centres unmarked) [compound 163], for which, in assay [1], the Emax was found to be 101% and the IC50 is 63.1 nM.

As for `CC(=O)Nc1ncc(CN2CCC[C@H](Cc3cc(C)nc(C)c3)C2)n1C` [compound 174], in assay [1], the Emax was determined as 40.9% and the IC50 was above 10000 nM.
